test system: Saccharomyces cerevisiae ABC16-Green Monster; assay: growth inhibition at single dose (up to 150 µM), below the 70% cut-off for dose-response; higher = more potent; details: 18 h; 30 °C; YPD
In short: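 Data are given as percent growth inhibition. Log-phase drug-sensitive S. cerevisiae ABC16-Green Monster cells (OD600 0.1–0.2, 200 µl per well in 96-well plates) were treated in biological duplicates with each library compound at a single 150 µM dose, with untreated cultures alongside, and OD600 was measured at 0 h and after 18 h at 30 °C. Compounds falling below 70% in both replicates were not taken to dose-response.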

| SMILES | growth inhibition at single dose |
| --- | --- |
| CC(=O)c1cc2c(N)c(-c3nc(C(C)(C)C)no3)sc2nc1C | < 70% |
| COC(=O)c1c(C)[nH]c(C(=O)Nc2ccc(C)cn2)c1C | < 70% |
| COc1ccc(O)c(C(=O)c2cnc3cc4c(cc3c2)OCCO4)c1 | < 70% |
| O=C(c1c[nH]c2ccccc12)C(c1ccccc1)N1CCN(CC(=O)N2CCCC2)CC1 (stereo not drawn) | < 70% |
| COc1ccc(C(=O)Nc2ccc3nc(N4CCCCC4)cc(C)c3c2)cc1OC | < 70% |
| O=C(Nc1ncccc1O)c1ccc(-n2ccnc2)cc1 | < 70% |
| O=C(Nc1ccc(-c2nc3cc(NC(=O)c4ccc(Cl)cc4)ccc3[nH]2)cc1)c1ccc(Cl)cc1 | < 70% |
| CCOc1ccc2cc(-c3nn(C(C)(C)C)c(N)c3C(N)=O)cnc2c1 | < 70% |
| Clc1ccc(CCNc2cc(-c3ccccc3)nc3ncnn23)cc1 | < 70% |
| Cc1ccc(Nc2nc(-c3ccccn3)cs2)cc1 | < 70% |
| CC(Nc1ncnc2sccc12)c1ccc(F)cc1 (stereo not drawn) | < 70% |
| CC(=O)N1CCc2cc3nc(C)cc(C)c3cc21 | < 70% |
| CCCn1c(=O)n(CC(=O)Nc2ccc(C)c(C)c2)c(=O)c2c1nc(C(F)(F)F)n2CCOC | < 70% |
| CCOc1cc2c(cc1CNC(=O)c1cnc3cc(C)nn3c1C)OC(C)C2 (stereo not drawn) | < 70% |
| COc1ccc(-c2nnc(SC(C)C(=O)NCCC3=CCCCC3)[nH]2)cc1 (stereo not drawn) | < 70% |
| CCCn1nc(C(=O)Nc2ccccc2N2CCc3ccccc3C2)ccc1=O | < 70% |
| COc1ccc(Nc2cc(C)nc(NCc3ccccc3)n2)cc1 | < 70% |
| COc1cccc(Nc2nc(-c3ccc(CCC(C)NC(C)=O)cc3)cs2)c1 (stereo not drawn) | < 70% |
| COc1ccccc1CNC(=O)c1cc(C2CC2)nc2c1cnn2C(C)C | < 70% |
| CCNC(=O)C(C)NC(=O)c1cc(-c2ccccc2)nc2c1cnn2Cc1ccccc1Cl (stereo not drawn) | < 70% |
| CC1=C(CC(=O)c2cccc([N+](=O)[O-])c2)C(=O)c2ccccc2C1=O | < 70% |
| COc1ccccc1N1CCN(C(CNS(=O)(=O)c2ccc(Cl)cc2)c2cccnc2)CC1 (stereo not drawn) | < 70% |
| CN1CCN(c2cc(-c3ccc(F)cc3)nc(-c3ccncc3)n2)CC1 | < 70% |
| Cc1ccc2[nH]c3c(NCCN(C)C)ncnc3c2c1 | < 70% |

| SMILES | growth inhibition at single dose |
| --- | --- |
| O=[N+]([O-])c1cn2c(n1)OC[C@@H](OCc1ccc(OC(F)(F)F)cc1)C2 | < 70% |
| Cc1ccc(Sc2nc(-c3cccs3)ns2)cc1 | < 70% |
| Fc1ccc2[nH]c3c(NCCCN4CCOCC4)ncnc3c2c1 | < 70% |
| C=CCn1c(C)cc(C(=O)CNC(=O)Nc2ccccc2)c1C | < 70% |
| Cc1cc(-c2cc(C(=O)N3CCCN(C)c4nc5ccccc5nc43)c3c(C)noc3n2)c(C)s1 | < 70% |
| CCOC(=O)c1cnc2ccc(OC)cc2c1NCc1ccccc1 | < 70% |
| COCc1nn2c3c(nnc2c1-c1ccccc1)C(=O)CC(c1ccccc1)C3 (stereo not drawn) | < 70% |
| COc1cncc(-c2cncc(N3CCN(c4ccncc4)CC3)n2)c1 | < 70% |
| c1ccc(Oc2ccc(-c3cc(N4CCNCC4)[nH]n3)cc2)cc1 | < 70% |
| COc1ccc(-n2nc(C)c3c2NC(=O)CC3c2ccc3c(c2)OCO3)cc1 (stereo not drawn) | < 70% |
| Cc1nc(NCCNc2cnccn2)c2c(-c3cccs3)csc2n1 | < 70% |
| OC(c1cn2cc(-c3ccc(F)cc3)nc2s1)(C(F)(F)F)C(F)(F)F | < 70% |
| CC(Nc1ccc(Oc2cccc(F)c2)cc1)C(=O)N1CCNC1=O (stereo not drawn) | < 70% |
| O=c1cc(CN2CCCCCC2)nc2sccn12 | < 70% |
| CCCCN(CCCC)S(=O)(=O)c1ccc(NC(=O)c2ccco2)cc1 | < 70% |
| COc1cc(C(=O)Nc2nc3c(cc4c5c(cccc53)CC4)s2)cc(OC)c1OC | < 70% |
| COc1cccc(NC(=O)Cn2c(C)c(C#N)c3ccccc32)c1 | < 70% |
| O=C(Nc1cnc2ccccc2c1)c1cccc(NC(=O)c2cccs2)c1 | < 70% |
| Cc1cc(C)n(-c2ccc(NC(=O)C3CCN(Cc4cnc(C)s4)CC3)cc2)n1 | < 70% |
| CNc1snc(C)c1C(=O)NCc1ccc(COCC(F)(F)F)cc1 | < 70% |
| CC(C)n1nc(-c2cc3c(Cl)cccc3[nH]2)c2c(N)ncnc21 | < 70% |
| CC(=O)C1C2C(=O)N(C(C)(C)C)C(=O)C2C2C=Cc3ccc4cccnc4c3N21 (stereo not drawn) | < 70% |
| Cc1cc(C(=O)Cn2c(CO)nc3ccccc32)c(C)n1Cc1ccco1 | < 70% |
| O=C1Nc2ccc(Br)cc2C12NCCc1c2[nH]c2ccccc12 (stereo not drawn) | < 70% |

| SMILES | growth inhibition at single dose |
| --- | --- |
| O=C(NCCN1CCCC1)c1cc(NCCN2CCOCC2)nc2ccc(Cl)cc12 | < 70% |
| O=C(Nc1ncc(Cc2ccc(Br)cc2)s1)c1ccc2n[nH]nc2c1 | < 70% |
| O=C(CN1CCOCC1)Nc1ccc2ncnc(Nc3ccc(OCc4cccc(F)c4)c(Cl)c3)c2c1 | < 70% |
| Nc1nn(C(=O)c2csc3ccccc23)c2ccccc12 | < 70% |
| COc1cc(CNC(=O)Nc2nc3ccccc3s2)cc(OC)c1OC | < 70% |
| CCOc1cc2c(cc1OCC)C(c1cc(Cl)ccc1O)NCC2 (stereo not drawn) | < 70% |
| CN(C(=O)CSc1nnc(COc2ccccc2F)n1N)C1CCCCC1 | < 70% |
| COc1ccccc1N1CCN(c2nc(=O)c3c([nH]2)CCC3)CC1 | < 70% |
| O=c1nc(C=Cc2ccc(Br)cc2)oc2ccccc12 | < 70% |
| Cc1cc(NC(=O)C2c3ccccc3C(=O)N(CC(C)C)C2c2cccs2)no1 (stereo not drawn) | < 70% |
| C[C@H]1c2cccc(O)c2C(=O)C2=C(O)[C@]3(O)C(=O)C(C(N)=O)=C(O)[C@@H](N(C)C)[C@@H]3[C@@H](O)[C@@H]21 | < 70% |
| O=C(O)c1c2c(nc3ccccc13)/C(=C/c1ccccc1Cl)CC2 | < 70% |
| c1ccc(C[C@@H]2CN(c3nccc(Oc4ccc(-n5ccnc5)cc4)n3)CCN2)cc1 | < 70% |
| CNc1cc(C)nc(C2CN(C(=O)c3n[nH]c4ccccc34)CCO2)c1 (stereo not drawn) | < 70% |
| O=C(NCC(c1ccsc1)N1CCCCCC1)c1ccc(C(F)(F)F)cc1 (stereo not drawn) | < 70% |
| c1ccc(Oc2ccc(-c3cncc(-c4ccc5[nH]ccc5c4)n3)cc2)cc1 | < 70% |
| CCOc1ccc(CCNC(=O)c2cccs2)cc1OCC | < 70% |
| CN(C)S(=O)(=O)c1ccc2oc(SCC(=O)Nc3cc(C(C)(C)C)no3)nc2c1 | < 70% |
| CNc1nnc(Sc2cnn(-c3ccccc3)c(=O)c2Cl)s1 | < 70% |
| c1ccc(Oc2ccc(-c3cc(N4CCOCC4)[nH]n3)cc2)cc1 | < 70% |
| Cc1ccc(-c2cc(C(=O)Nc3cccnc3)c3cc(Br)ccc3n2)cc1 | < 70% |
| OCCNCc1cc(Br)ccc1OCc1ccc(F)cc1 | < 70% |
| CC(=O)N1CCc2cc(NC(=O)c3cc(C)n(C4CCCCC4)c3C)ccc21 | < 70% |
| Cc1cccc(NC(=O)c2cc(S(=O)(=O)N(C)c3ccc(F)cc3)ccc2Cl)n1 | < 70% |

| SMILES | growth inhibition at single dose |
| --- | --- |
| CN(C)S(=O)(=O)c1cccc(C(=O)Nc2cnc3ccccc3c2)c1 | < 70% |
| CC1Cc2cc(C3=NNC(=NC4CC4)SC3)ccc2N1S(C)(=O)=O (stereo not drawn) | < 70% |
| C#CCNS(=O)(=O)c1ccc(C(=O)Nc2ccccc2O)cc1 | < 70% |
| Cc1noc(C)c1S(=O)(=O)N(Cc1ccc(C(=O)NC2CC2)cc1)C1CC1 | < 70% |
| COc1ccc(-c2cnc3ccc(NCc4ccc(S(N)(=O)=O)cc4)nn23)cn1 | < 70% |
| Cc1cc2nc(NC(=O)C(C)(C)C)nc(Cl)c2n1Cc1ccc(Cl)cc1 | < 70% |
| CC(C)CN(C(=O)c1ccc(N2CCCC2)c([N+](=O)[O-])c1)c1nc2ccccc2s1 | < 70% |
| Clc1ccc2c(N3CCCC3)ccnc2c1 | < 70% |
| O=C(Nc1ccc(-c2nc3ccccc3[nH]2)cc1)c1ccc(Cl)c(Cl)c1 | < 70% |
| CCn1c(CN2CCN(Cc3ccccc3)CC2)nc2cc(NC(=O)c3cccs3)ccc21 | < 70% |
| CC(C)(C)c1ccc(C2CC3=Nc4ccccc4N(C(=O)c4ccccc4Cl)C(c4ccc(F)cc4)C3=C(O)C2)cc1 (stereo not drawn) | < 70% |
| C=CCn1c(SCc2c(C)noc2C)nc2scc(C3CC3)c2c1=O | < 70% |
| CCn1cnc2c(Nc3cc(F)cc(F)c3)nc(C#N)nc21 | < 70% |
| O=C(NCc1ccco1)N1CCN(Cc2ccc(Cl)s2)CC1 | < 70% |
| Cc1cnc(CCNC(=O)c2cc(-c3ccc(Cl)cc3)cs2)[nH]1 | < 70% |
| C/N=c1\scc(-c2ccc(OC(F)F)cc2)n1/N=C/c1cccs1 | < 70% |
| Cc1cc(Nc2ccc(C)c(Cl)c2)n2nc(C(F)(F)F)nc2n1 | < 70% |
| CCOc1cc(Cl)c(C(C)NC(=O)c2ccccc2)cc1OCC (stereo not drawn) | < 70% |
| COC(=O)c1c(NC(=O)c2c(F)c(F)c(F)c(F)c2F)sc2c1CCCCC2 | < 70% |
| O=C(NC1CCN(c2ccc(S(=O)(=O)C(F)(F)F)cc2)CC1)C1CC1 | < 70% |
| N#Cc1ccc(-c2ccc(OCC(N)=O)cc2)cc1 | < 70% |
